Results from EP4751721A1, “COMPOSITION CONTAINING NOVEL COMPOUND FOR PREVENTING OR TREATING PARKINSON'S DISEASE” (PRG S&Tech Inc., priority 2023, dated 2025).

Legend:
Syn^A53T-Tg mice = experiment: In vivo treatment and histological analysis in Parkinson's disease (PD) mouse model
Experimental: Experiments were conducted in approved facility of Association for Assessment and Accreditation of Laboratory Animal Care in accordance with animal policies approved by Pusan National University. B6.Cg-Tg (Prnp-SNCAA53T)/J mice were obtained from Jackson Laboratory (Stock No: 006823). All mice were maintained under temperature- and light-controlled conditions (20-23°C, 12 h-12 h light/dark cycle) and provided with autoclaved food and water.
24 week-old Syn^A53T-Tg mice were administered vehicle (DMSO), PRG-A-03, and PRG-A-04 intraperitoneally twice a week for 24 to 26 weeks. Control mice were treated under the same conditions. Mice were sacrificed at 48-52 weeks of age for histological analysis. After cardiac perfusion with 4% paraformaldehyde, the brains were dissected and embedded in paraffin blocks according to standard tissue processing procedures. Embedded tissue ([…]) was cut into 5 µm sections using a tissue sectioner (Leica microtome) and transferred to adhesive-coated slides (Marienfeld laboratory glassware, Germany). For histological pathologic analysis of Syn^A53T-Tg mice, immunohistochemistry (IHC) using a dopaminergic neuronal marker (Tyrosine Hydroxylase) was performed after deparaffinization and rehydration. To monitor dopaminergic neurons by immunofluorescence (IF), dissected brains were embedded in agarose holders and sectioned with a vibratome. Thinly sliced tissues were treated with a blocking solution (normal donkey serum diluted 1:500 in 0.1% Triton X-100 PBS) for 1 h. Cells were incubated with anti-TH antibody (diluted 1:500) overnight at 4°C. Finally, cells were incubated with FITC-conjugated secondary antibody at 4°C for 2 h. Cells were washed three times with PBS, and coverslips were mounted using mounting solution (H-5501, Vector Laboratories), followed by analysis by fluorescence microscopy (Zeiss). […]

normal human fibroblasts = experiment: Cell viability (MTT assay) in normal human fibroblasts; assay type: cell-based; details: 48 h; for cytotoxic effects (cell viability, MTT): normal human fibroblasts, FIG. 3
Experimental: SK-N-SH cells were purchased from the Korean Cell Line Bank (KCLB, Seoul, South Korea) and maintained in MEM medium containing 10% fetal bovine serum, 1% antibiotics, 25 mM HEPES, and 300 mg/L L-Glu. Human fibroblasts (person) were obtained from Coridll Cell Repositories (New Jersey, USA) and maintained in EMEM containing 15% FBS and 2 mM glutamine, along with 26 mM HEPES without antibiotics.
To investigate cell viability, cells were treated with chemicals (PRG-A compound) for 48 h. Then, the cells were incubated with 0.5 mg/ml 3-(4,5-dimethylthiazol-2-yl)-2,5-diphenyltetrazolium bromide (MTT) solution (475989; Merck, Darmstadt, Germany) at 37°C for 4 h. After removing the excess solution and washing with PBS, the precipitated substances were dissolved in 200 µl of DMSO and quantified by measuring the absorbance at 540 nm.
Lastly, to determine the toxicity of PRG-A compounds, normal human fibroblasts and neuroblastoma cells (SK-N-SH) were cultured with each compound for 48 h, and cell viability was measured via the MTT assay. The effect on survival rates of neuronal cells and normal fibroblasts was identified (FIG. 3).

Syn-A53T = target: T1, Syn-A53T (Homo sapiens, UniProt P37840, A53T); experiment: Immunofluorescence staining of aggregated synuclein in transfected cells; assay type: cell-based; details: Syn-A53T vector 24 h, compound 5 µM for 24 h, pan-Syn antibody, FIG. 1C
T1 construct: FLAG; host or cells: SK-N-SH

[1] = target: T2, synuclein mutant (Syn-A53T) (Homo sapiens, UniProt P37840, A53T); experiment: Insoluble/soluble synuclein fractionation by Western blot in SK-N-SH cells transfected with MT-Syn (Syn-A53T); assay type: cell-based; details: treated for 24 h, pellet (insoluble) vs supernatant, FIG. 1B
T2 construct: FLAG; host or cells: SK-N-SH
Experimental: For SDS-PAGE, proteins were extracted from cells using RIPA buffer (50 mM Tris-Cl, pH 7.5, 150 mM NaCl, 1% NP-40, 0.1% SDS, and […] sodium deoxycholate). Samples were separated by SDS-PAGE and transferred to a PVDF membranes. The blotted membrane was blocked with 3% skim milk containing TBST buffer for 1 h and incubated with specific antibodies. Reacted antibodies were detected by ECL and X-ray film exposure. The antibody used in this experiment was pan-Syn (GTX112799), purchased from Genetex (California, USA). Actin antibody (66009-1-lg) and α-tubulin antibody (66240-1-lg) were obtained from Proteintech (Rosemont, IL, USA). Anti-FLAG (Sigma; F3165) from Sigma Aldrich (St, Louis, MO, USA) was used as a […], and HRP-conjugated goat anti-mouse, goat anti-rabbit, and mouse anti-goat antibodies (Pierce, Thermo Fisher Scientific, Inc., Rockford, IL, USA) were used. FLAG-Syn-WT and MT vectors were transfected into SK-N-SH cells for 24 h. […]
To identify the effect of the PRG-A compound on alpha-synuclein aggregation, the inventors transfected the FLAG-Syn-A30P vector into SK-N-SH cells for 24 h. […] Expression of synuclein was observed under a fluorescence microscope with a pan-Syn antibody (white arrow; high intensity of Syn).

## CC1(C)Oc2cc3oc(=O)ccc3cc2C[C@@H]1OC(=O)/C=C/c1ccc(F)cc1 [PRG-A-03, (S)-8,8-dimethyl-2-oxo-7,8-dihydro-2H,6H-pyrano[3,2-g]chromen-7-yl (E)-3-(4-fluorophenyl)acrylate]
Syn^A53T-Tg mice; brain tissue of Syn-A53T Tg, FIG. 2C
  phosphorylation of Tau in brain tissue: suppresses phosphorylation of Tau
Syn^A53T-Tg mice; intraperitoneal, 20 mg/kg or 40 mg/kg, 24 to 26 weeks, FIG. 2B
  Dopaminergic neuron markers (Tyrosine Hydroxylase, TH) in the substantia nigra (SN), IHC: maintained
Normal human fibroblasts; high doses (50 and 100 µM), cell type not given
  impact on cell viability (MTT): low impact on cell viability

## CC1(C)Oc2cc3oc(=O)ccc3cc2C[C@@H]1O [Chem-001, decursinol]
Syn-A53T
  Aggregated synuclein (immunofluorescence): marginal effects

## COc1cc(/C=C/CO[C@H]2Cc3cc4ccc(=O)oc4cc3OC2(C)C)ccc1[N+](=O)[O-] [PRG-A-04, (S,E)-7-((3-(3-methoxy-4-nitrophenyl)allyl)oxy)-8,8-dimethyl-7,8-dihydro-2H,6H-pyrano[3,2-g]chromen-2-one]
[1]
  insoluble synuclein: reduce insoluble synuclein in a dose-dependent manner
Syn^A53T-Tg mice; intraperitoneal, 20 mg/kg or 40 mg/kg, 24 to 26 weeks, FIG. 2D
  loss of dopaminergic neurons in the SN by IF staining using TH: prevents the loss of dopaminergic neurons
Normal human fibroblasts
  cytotoxic effects (cell viability, MTT): did not exhibit cytotoxic effects

## COc1cc(/C=C/C(=O)O[C@H]2Cc3cc4ccc(=O)oc4cc3OC2(C)C)ccc1O [PRG-A-01, (S)-8,8-dimethyl-2-oxo-7,8-dihydro-2H,6H-pyrano[3,2-g]chromen-7-yl (E)-3-(4-hydroxy-3-methoxyphenyl)acrylate]
Normal human fibroblasts
  cytotoxic effects (cell viability, MTT): did not exhibit cytotoxic effects

## COc1cc(/C=C/CO[C@H]2Cc3cc4ccc(=O)oc4cc3OC2(C)C)ccc1O [PRG-A-02, (S,E)-7-((3-(4-hydroxy-3-methoxyphenyl)allyl)oxy)-8,8-dimethyl-7,8-dihydro-2H,6H-pyrano[3,2-g]chromen-2-one]
Normal human fibroblasts
  cytotoxic effects (cell viability, MTT): did not exhibit cytotoxic effects
